Calls of active or inactive are those of the source. No cut-off for these calls is given here.

For experiment [1], the system named is HCT-116. Briefly: Antiproliferative activity against human HCT116 cells after 72 hrs by CCK8 assay. Format: functional, cell-based. The note with it: HCT-116, 72 h. On the technique in general: Tetrazolium dyes change colour on reduction, which living cells bring about.
Experiment [2] has as its target Histone deacetylase 1 (Homo sapiens, UniProt Q13547). Briefly: Inhibition of human recombinant full length HDAC1 using fluorogenic substrate 3 after 30 mins by fluorescence assay.
Experiment [3] concerns the target E3 ubiquitin-protein ligase Mdm2 (Homo sapiens, UniProt Q00987). Put plainly: Inhibition of MDM2 (unknown origin) preincubated for 30 mins by fluorescence polarization assay. (In general: Fluorescence polarisation rises when a labelled molecule tumbles more slowly, as on binding a larger partner.)
Experiment [4] relates to A549. Put plainly: Antiproliferative activity against human A549 cells after 72 hrs by CCK8 assay. Format: functional, cell-based. As to conditions: A549, 72 h.
Experiment [5] deals with T1, Tumour suppressor p53/oncoprotein Mdm2 (Homo sapiens) (UniProt P04637+Q00987). Briefly: Inhibition of MDM2/P53 interaction in human A549 cells assessed as increase in p53 expression at 10 uM after 12 hrs by Western blot analysis. Type of experiment: cell-based. On the technique in general: A western blot detects proteins with antibodies after separation by electrophoresis.

The subject of experiment [6] is NCI-H1299. Put plainly: Antiproliferative activity against human NCI-H1299 cells after 72 hrs by CCK8 assay. Type of experiment: functional, cell-based. The note with it: NCI-H1299, 72 h.
Experiment [7] relates to MCF7. Put plainly: cells. As to conditions: Homo sapiens, MCF7, 72 h.
Description: Antiproliferative activity against human MCF7 cells after 72 hrs by CCK8 assay
Experiment [8] concerns A549. Briefly: animal or person. Type of experiment: functional, Homo sapiens. The note with it: Mus musculus, A549, po, read-out: TGI.
The test system of experiment [9] is A549. Put plainly: cells. As to conditions: Homo sapiens, A549, 48 h, read-out: Activity.
In experiment [10] the test system is A549. Briefly: cells. The note with it: Homo sapiens, A549, 48 h, read-out: Activity. This is another data set of the same source.
Experiment [11] addresses T1, Tumour suppressor p53/oncoprotein Mdm2 (Homo sapiens). Put plainly: Inhibition of MDM2/P53 interaction in human A549 cells assessed as increase in p53 expression at 5 to 10 uM after 12 hrs by Western blot analysis. Type of experiment: cell-based.
The target is the same in experiment [12]. Put plainly: Inhibition of MDM2/P53 interaction in human A549 cells assessed as increase in MDM2 expression at 5 to 10 uM after 12 hrs by Western blot analysis. Type of experiment: cell-based.

T1 sequence (P04637 whole entry, looked up): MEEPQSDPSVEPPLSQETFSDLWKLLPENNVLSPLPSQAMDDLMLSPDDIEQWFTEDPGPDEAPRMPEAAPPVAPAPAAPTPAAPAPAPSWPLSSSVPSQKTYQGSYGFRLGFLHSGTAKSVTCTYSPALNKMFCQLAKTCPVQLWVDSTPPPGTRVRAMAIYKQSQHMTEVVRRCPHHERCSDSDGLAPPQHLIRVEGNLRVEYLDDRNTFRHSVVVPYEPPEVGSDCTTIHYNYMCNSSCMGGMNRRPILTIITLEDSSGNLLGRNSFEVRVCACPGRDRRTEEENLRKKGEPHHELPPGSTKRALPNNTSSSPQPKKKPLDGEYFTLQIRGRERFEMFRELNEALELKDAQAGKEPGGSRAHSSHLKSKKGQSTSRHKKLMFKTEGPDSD
T1 sequence (Q00987 whole entry, looked up): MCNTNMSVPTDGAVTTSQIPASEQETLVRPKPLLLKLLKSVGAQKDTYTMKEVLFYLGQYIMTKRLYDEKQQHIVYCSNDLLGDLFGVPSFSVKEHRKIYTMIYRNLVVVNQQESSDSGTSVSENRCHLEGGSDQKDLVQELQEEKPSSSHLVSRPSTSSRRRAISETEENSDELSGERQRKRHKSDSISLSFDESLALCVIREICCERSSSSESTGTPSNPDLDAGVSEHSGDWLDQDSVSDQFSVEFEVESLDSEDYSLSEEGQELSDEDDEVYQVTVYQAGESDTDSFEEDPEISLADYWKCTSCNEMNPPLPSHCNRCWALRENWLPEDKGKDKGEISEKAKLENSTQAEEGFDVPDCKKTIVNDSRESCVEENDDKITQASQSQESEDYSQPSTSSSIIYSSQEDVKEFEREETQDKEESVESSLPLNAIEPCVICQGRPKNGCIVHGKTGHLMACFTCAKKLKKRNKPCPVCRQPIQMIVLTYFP
Chain of Histone deacetylase 1 (Q13547 whole entry): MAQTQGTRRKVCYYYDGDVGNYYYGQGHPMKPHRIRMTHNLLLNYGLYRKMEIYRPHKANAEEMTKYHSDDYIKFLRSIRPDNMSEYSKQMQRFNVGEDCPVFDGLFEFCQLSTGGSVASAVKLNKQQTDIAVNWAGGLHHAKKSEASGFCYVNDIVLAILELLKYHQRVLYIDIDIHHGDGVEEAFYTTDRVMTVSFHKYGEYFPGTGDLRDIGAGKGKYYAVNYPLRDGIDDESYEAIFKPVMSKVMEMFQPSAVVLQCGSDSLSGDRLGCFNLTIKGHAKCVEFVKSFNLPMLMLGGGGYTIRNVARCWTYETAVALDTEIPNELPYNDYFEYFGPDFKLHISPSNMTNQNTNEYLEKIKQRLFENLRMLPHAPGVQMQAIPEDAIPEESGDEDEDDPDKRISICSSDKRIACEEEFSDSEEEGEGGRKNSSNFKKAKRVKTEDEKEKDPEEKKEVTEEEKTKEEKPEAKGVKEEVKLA
Chain of E3 ubiquitin-protein ligase Mdm2 (Q00987 whole entry): as the sequence (Q00987 whole entry, looked up) above

For `CCOc1cc(C(C)(C)C)ccc1C1=N[C@H](c2ccc(Cl)cc2)[C@H](c2ccc(Cl)cc2)N1C(=O)N1CCN(CCCCCCC(=O)NO)CC1`, the half-maximal inhibitory concentration (IC50) in experiment [1] was 10 µM; in experiment [2], 0.91 µM; in experiment [4], 9.02 µM. The Ki in experiment [3] worked out at 10.9 µM. Besides, in experiment [5], the outcome was Active.
For `CCOc1cc(C(C)(C)C)ccc1C1=NC(c2ccc(Cl)cc2)C(c2ccc(Cl)cc2)N1C(=O)N1CCN(Cc2ccc(C(=O)NO)cc2)CC1` (stereo not drawn), the IC50 in [1] is 2.03 µM; in experiment [2], 3.51 µM; in [4] it was 2.17 µM; in experiment [6], 3 µM; in [7] it was 3.97 µM. The Ki in experiment [3] was 0.26 µM.
Regarding `CCOc1cc(C(C)(C)C)ccc1C1=NC(c2ccc(Cl)cc2)C(c2ccc(Cl)cc2)N1C(=O)N1CCN(CCCCCCCC(=O)NO)CC1` (stereo not drawn), the IC50 was found to be 1.71 µM in experiment [1]; 0.41 µM in [2]; 2.01 µM in experiment [4]; 7.76 µM in [6]; 4.83 µM in experiment [7]. Also, in experiment [3], the affinity, expressed as Ki, was 0.29 µM.
As to `CCOc1cc(C(C)(C)C)ccc1C1=NC(c2ccc(Cl)cc2)C(c2ccc(Cl)cc2)N1C(=O)NCCCCCCC(=O)Nc1ccccc1N` (stereo not drawn), the 50% inhibitory concentration (IC50) in [1] is 10.1 µM; in experiment [2] it was 6.07 µM; in [4], 16 µM; in experiment [6], 17.5 µM; in experiment [7], above 100 µM. The inhibition constant Ki in [3] is 0.62 µM.
On to `CCOc1cc(C(C)(C)C)ccc1C1=NC(c2ccc(Cl)cc2)C(c2ccc(Cl)cc2)N1C(=O)NCCCCCCCC(=O)Nc1ccccc1N` (stereo not drawn), for which the IC50 in [1] was determined as 9.91 µM; in experiment [2], 3.59 µM; in experiment [4] it was 15.2 µM; in experiment [6], 19.6 µM; in experiment [7], 20.3 µM. In experiment [3], this compound came in with a Ki of 1.02 µM.
With `COc1ccc(C2=N[C@@H](c3ccc(Cl)cc3)[C@@H](c3ccc(Cl)cc3)N2C(=O)N2CCNC(=O)C2)c(OC(C)C)c1` [NUTLIN-3], the half-maximal inhibitory concentration (IC50) in [1] is 9.07 to 9.97 µM; in experiment [2], above 100 µM; in [4], 9.58 to 11.7 µM; in [6], 19.8 µM; in experiment [7] it was 8.5 µM. Moreover, the inhibition in vivo at 100 mg/kg in experiment [8] worked out at 44%. Further, the viability at 1 µM in [9] was 89.8%. The viability at 5 µM in [10] was found to be 83.3%.
On to `CCOc1cc(C(C)(C)C)ccc1C1=NC(c2ccc(Cl)cc2)C(c2ccc(Cl)cc2)N1C(=O)N1CCC(Nc2ncc(C(=O)NO)cn2)CC1` (stereo not drawn), for which the concentration for half-maximal inhibition (IC50) in experiment [1] was 3.24 µM; in [2] it was 1.01 µM; in experiment [4] it was 3.11 µM; in experiment [6] it was 7.91 µM; in experiment [7] it was 2.68 µM. In experiment [3], this compound yielded a Ki of 0.46 µM.
For the compound `CCOc1cc(C(C)(C)C)ccc1C1=NC(c2ccc(Cl)cc2)C(c2ccc(Cl)cc2)N1C(=O)N1CCC(C(=O)NO)CC1` (stereo not drawn), the 50% inhibitory concentration (IC50) was 9.3 µM in [1]; 9.72 µM in experiment [2]; 2.99 µM in [4]; 9.87 µM in experiment [6]; 10.1 µM in [7]. Also, in experiment [3], the Ki was 0.057 µM.
As to `CCOc1cc(C(C)(C)C)ccc1C1=NC(c2ccc(Cl)cc2)C(c2ccc(Cl)cc2)N1C(=O)N1CCN(CC(=O)NO)CC1` (stereo not drawn), the IC50 in experiment [1] is 5.88 µM; in experiment [2], 4.2 µM; in experiment [4] it was 4.32 µM; in experiment [6], 11.5 µM; in [7], 11.7 µM. Besides, in experiment [3], the Ki is 0.07 µM.
In the case of `CCOc1cc(C(C)(C)C)ccc1C1=NC(c2ccc(Cl)cc2)C(c2ccc(Cl)cc2)N1C(=O)NCCCCC(=O)NO` (stereo not drawn), the IC50 stood at 10.7 µM in [1]; 2.92 µM in [2]; 9.34 µM in experiment [4]; 16.2 µM in experiment [6]; 12.8 µM in experiment [7]. For the same compound, in experiment [3], the Ki worked out at 0.33 µM.
With `CCOc1cc(C(C)(C)C)ccc1C1=NC(c2ccc(Cl)cc2)C(c2ccc(Cl)cc2)N1C(=O)NCCCCCC(=O)Nc1ccccc1N` (stereo not drawn), the IC50 is 21.8 µM in experiment [1]; above 20 µM in experiment [2]; 20.3 µM in [4]; 19.1 µM in experiment [6]; above 100 µM in [7]. For the same compound, in [3], the Ki worked out at 1.43 µM.
In [3], `O=C(CCCCCCC(=O)Nc1ccccc1)NO` [VORINOSTAT] came in with an inhibition constant Ki above 20 µM. The compound also returned an IC50 in [6] of 4.92 µM.
`CCOc1cc(C(C)(C)C)ccc1C1=NC(c2ccc(Cl)cc2)C(c2ccc(Cl)cc2)N1C(=O)NCCCCCCCC(=O)NO` (stereo not drawn): the half-inhibitory concentration (IC50) in experiment [1] is 5.03 µM; in experiment [2], 0.27 µM; in experiment [4] it was 4.85 µM; in experiment [6], 9.06 µM; in [7] it was 7.92 µM. This compound also registered an inhibitory constant (Ki) in [3] of 0.34 µM.
As to `CCOc1cc(C(C)(C)C)ccc1C1=NC(c2ccc(Cl)cc2)C(c2ccc(Cl)cc2)N1C(=O)N1CCN(c2ncc(C(=O)NO)cn2)CC1` (stereo not drawn), the concentration for half-maximal inhibition (IC50) in experiment [1] is 0.98 µM; in [2], 0.31 µM; in experiment [4], 1.97 µM; in experiment [6], 5.45 µM; in experiment [7] it was 3.46 µM. Besides, the Ki in experiment [3] was determined as 1.05 µM.
As for `CC(=O)Nc1ccc(C(=O)Nc2ccccc2N)cc1` [TACEDINALINE], the IC50 in [1] stood at 9.83 µM; in [4] it was 10.2 µM; in experiment [6], 6.79 µM; in experiment [7], 13.2 µM.
On to `CCOc1cc(C(C)(C)C)ccc1C1=NC(c2ccc(Cl)cc2)C(c2ccc(Cl)cc2)N1C(=O)N1CCC(C(=O)Nc2ccc(/C=C/C(=O)NO)cc2)CC1` (stereo not drawn), for which the IC50 came to 9.64 µM in experiment [1]; 0.97 µM in [2]; 7.59 µM in experiment [4]; 9.36 µM in experiment [6]; 7.22 µM in experiment [7]. This compound yielded a Ki in [3] of 2.65 µM.
Turning to `CCOc1cc(C(C)(C)C)ccc1C1=NC(c2ccc(Cl)cc2)C(c2ccc(Cl)cc2)N1C(=O)N1CCN(CCCCCC(=O)NO)CC1` (stereo not drawn), the 50% inhibitory concentration (IC50) is 4.03 µM in experiment [1]; 0.97 µM in experiment [2]; 2.91 µM in [4]; 9.39 µM in experiment [6]; 7.26 µM in experiment [7]. The same compound showed a Ki in experiment [3] of 0.17 µM.
With `CCOc1cc(C(C)(C)C)ccc1C1=N[C@@H](c2ccc(Cl)cc2)[C@@H](c2ccc(Cl)cc2)N1C(=O)N1CCN(CCCCCCC(=O)NO)CC1`, the half-maximal inhibitory concentration (IC50) in [1] was found to be 1.11 µM; in experiment [2] it was 0.89 µM; in experiment [4], 0.99 µM. The compound further showed a Ki in [3] of 0.06 µM. Besides, the inhibition result in experiment [11] and in experiment [12] was “Active” in each case.
As for `CCOc1cc(C(C)(C)C)ccc1C1=NC(c2ccc(Cl)cc2)C(c2ccc(Cl)cc2)N1C(=O)N1CCN(CCCCC(=O)NO)CC1` (stereo not drawn), the IC50 in experiment [1] came out at 5.21 µM; in experiment [2], 0.98 µM; in [4] it was 3.78 µM; in [6], 12.9 µM; in experiment [7] it was 9.8 µM. Moreover, the inhibition constant (Ki) in [3] is 0.17 µM.
In the case of `CCOc1cc(C(C)(C)C)ccc1C1=NC(c2ccc(Cl)cc2)C(c2ccc(Cl)cc2)N1C(=O)NCc1ccc(C(=O)NO)cc1` (stereo not drawn), the IC50 was 9.1 µM in experiment [1]; 3.7 µM in [2]; 7.64 µM in [4]; 7.71 µM in experiment [6]; 13.3 µM in [7]. In experiment [3], this compound came in with a Ki of 0.58 µM.
Consider `CCOc1cc(C(C)(C)C)ccc1C1=NC(c2ccc(Cl)cc2)C(c2ccc(Cl)cc2)N1C(=O)NCCCCC(=O)Nc1ccccc1N` (stereo not drawn), for which the half-inhibitory concentration (IC50) in [1] was 13.9 µM; in [2], above 20 µM; in experiment [4], 18.4 µM; in experiment [6] it was 15.6 µM; in experiment [7] it was 29.1 µM. The same compound registered an inhibition constant (Ki) in [3] of 0.96 µM.
`CCOc1cc(C(C)(C)C)ccc1C1=NC(c2ccc(Cl)cc2)C(c2ccc(Cl)cc2)N1C(=O)NCCCCCC(=O)NO` (stereo not drawn): the IC50 in experiment [1] amounted to 7.15 µM; in experiment [2], 1.13 µM; in experiment [4], 5.72 µM; in experiment [6], 10.4 µM; in [7], 10.6 µM. In experiment [3], this compound had an inhibitory constant (Ki) of 0.28 µM.
As to `CCOc1cc(C(C)(C)C)ccc1C1=NC(c2ccc(Cl)cc2)C(c2ccc(Cl)cc2)N1C(=O)NCCCCCCC(=O)NO` (stereo not drawn), the IC50 was 7.09 µM in experiment [1]; 0.89 µM in experiment [2]; 5.97 µM in experiment [4]; 7.65 µM in experiment [6]; 7.23 µM in [7]. Besides, the affinity in [3], expressed as Ki, was 0.32 µM.

For orientation: IC50 means the concentration that inhibits the measured activity by half. Broadly, the Ki is the dissociation constant of the complex between target and ligand, obtained from inhibition or displacement. Lower therefore signals tighter binding.

Source of the values: ChEMBL document CHEMBL4152341, “Small Molecules Simultaneously Inhibiting p53-Murine Double Minute 2 (MDM2) Interaction and Histone Deacetylases (HDACs): Discovery of Novel Multitargeting Antitumor Agents” (J Med Chem, 2018).
